ChEMBL document CHEMBL1165874, “Carbonic anhydrase inhibitors: synthesis and inhibition of the human cytosolic isozymes I and II and transmembrane isozymes IX, XII (cancer-associated) and XIV with 4-substituted 3-pyridinesulfonamides” (Eur J Med Chem, 2010)

target: Carbonic anhydrase 9 (Homo sapiens, UniProt Q16790)

Structure (SMILES)	Ki [nM]
NS(=O)(=O)c1cnccc1Sc1nnns1	7.7
N#Cc1ccc(Oc2ccncc2S(N)(=O)=O)cc1	7.2
NS(=O)(=O)c1cnccc1Oc1ccc(F)cc1	7.9
CC1CC=NN1c1ccncc1S(N)(=O)=O (configuration not stated)	7.8
NS(=O)(=O)c1cnccc1Sc1nc2ccc([N+](=O)[O-])cc2s1	9.6
C#CCSc1ccncc1S(N)(=O)=O	6.3

target: Carbonic anhydrase 14 (Homo sapiens, UniProt Q9ULX7)
Sequence (Q9ULX7 whole entry): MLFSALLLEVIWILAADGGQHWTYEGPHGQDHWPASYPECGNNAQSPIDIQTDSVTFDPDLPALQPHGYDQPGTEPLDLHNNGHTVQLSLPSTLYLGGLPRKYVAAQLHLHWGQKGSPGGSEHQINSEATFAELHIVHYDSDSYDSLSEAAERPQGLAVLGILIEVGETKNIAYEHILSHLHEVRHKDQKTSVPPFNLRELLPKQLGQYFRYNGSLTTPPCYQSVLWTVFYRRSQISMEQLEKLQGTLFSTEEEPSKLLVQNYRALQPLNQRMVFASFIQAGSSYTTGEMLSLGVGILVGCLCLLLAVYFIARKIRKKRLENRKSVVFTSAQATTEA

Structure (SMILES)	Ki [nM]
NS(=O)(=O)c1ccc(S(=O)(=O)Nc2cccc3c(Cl)c[nH]c23)cc1	104
